Test results as given in patent US4537772A, “Enhancing absorption of drugs from gastrointestinal tract using acylcarnitines” (Merck & Co., Inc., priority 1984, dated 1985).

Columns and labels:
[1] = rat, in vivo
Protocol: (§1) Effect of palmitoylcarnitine chloride on the rectal absorption of drug entities. Experiments were performed with rats wherein each animal received an aqueous microenema applied to the rectal cavity. […] Blood levels were monitored and the amount of drug absorbed calculated against intravenous administration and expressed as percent bioavailability.
(§2) Concentration dependence of palmitoylcarnitine effect on rectal absorption of sodium cefoxitin, a β-lactam antibiotic. […] Blood samples were collected and assayed for sodium cefoxitin. The amount of drug absorbed is expressed as percent bioavailability as compared to intravenous administration.
(§3) Effect of various carnitine esters on rectal absorption of sodium cefoxitin, a β-lactam antibiotic, and cyclo(N-Ala-Tyr-D-Trp-Lys-Val-Phe)acetate, a polypeptide. […] Blood samples were collected and sodium cefoxitin or cyclo(N-AlA-TyR-D-Trp-Lys-Val-Phe)acetate assayed. The amount of drug absorbed is expressed as percent bioavailability versus intravenous administration.
(§4) Importance of carnitine-palmitoyl ester linkage in absorption promoting effects on rectal sodium cefoxitin absorption. […] Blood was collected and sodium cefoxitin measured. Absorption of sodium cefoxitin is expressed as percent bioavailability versus intravenous administration.

[2] = Rectal absorption of target drug from aqueous microenema, percent bioavailability versus intravenous administration; details: carnitine without acyl ester
Protocol: as §1, §2, §3, §4

in vivo [3] = details: rat
Protocol: Effect of palmitoylcarnitine chloride on small intestinal absorption of polypeptides. Experiments were performed with rats wherein each animal received an aqueous solution applied to the duodenal region. […] Blood levels were monitored and the amount of polypeptide absorbed calculated against intravenous administration and expressed as percent bioavailability.

in vivo [4] = details: rat; remark: listed apart in the source
Protocol: as §1, §2, §3, §4

CCCCCCCCCCCCCCCC(=O)O [Palmitic acid]
Sodium Cefoxitin Percent Bioavailability (mean ± SD) ([1]; pH 6): 1 ± 0.8%

Cn1c(=O)c2[nH]cnc2n(C)c1=O [Theophylline]
Percent Bioavailability (mean ± SD) Control [1]: 75 ± 3.3% | Percent Bioavailability (mean ± SD) with Palmitoylcarnitine-Cl [1]: 75 ± 2.6%

C[N+](C)(C)CC(O)CC(=O)[O-] (stereo not shown) [Carnitine]
Sodium Cefoxitin Percent Bioavailability (mean ± SD) ([1]; pH 6): 1 ± 0.6% | absorption promoting effect of carnitine alone [2]: no effect

Nc1ccn([C@@H]2O[C@H](CO)[C@@H](O)[C@@H]2O)c(=O)n1 [Cytarabine]
Percent Bioavailability (mean ± SD) Control [1]: 0.5 ± 0.1% | Percent Bioavailability (mean ± SD) with Palmitoylcarnitine-Cl [1]: 9 ± 0.6%

CC(C)[C@@H]1NC(=O)[C@H](CCCCN)NC(=O)[C@@H](Cc2c[nH]c3ccccc23)NC(=O)[C@H](Cc2ccc(O)cc2)NC(=O)[C@H](C)N(C)C(=O)[C@H](Cc2ccccc2)NC1=O [#-363,586, cyclo(N--Me--Ala--Tyr--DTrp--Lys--Val--Phe)acetate]
bioavailability (in vivo [3]): 1% | bioavailability (in vivo [4]; 0.1 mg, pH 6, Percent Bioavailability (mean ± SD) Cyclo(N-Ala-Tyr-D-Trp-Lys-Val-Phe)acetate): 7 ± 3.5% | bioavailability (in vivo [4]; Percent Bioavailability (mean ± SD) Control): 7 ± 3.5% | bioavailability (in vivo [4]; Percent Bioavailability (mean ± SD) with Palmitoylcarnitine-Cl): 100 ± 28.2%

CO[C@@]1(NC(=O)Cc2cccs2)C(=O)N2C(C(=O)O)=C(COC(N)=O)CS[C@@H]21 [Sodium cefoxitin]
Percent Bioavailability (mean ± SD) Control [1]: 2 ± 1.1% | Percent Bioavailability (mean ± SD) with Palmitoylcarnitine-Cl [1]: 68 ± 7.2% | Percent Bioavailability (mean ± SD) Sodium Cefoxitin ([1]; pH 6): 2 ± 1.1% | Sodium Cefoxitin Percent Bioavailability (mean ± SD) ([1]; pH 6): 2 ± 1.1% | Sodium Cefoxitin Percent Bioavailability mean ± SD ([1]; pH 6): 2 ± 1.1%
